# Literature values, collected in patent publication EP4772943A1, “ALKALINE AQUEOUS SOLUTION FOR SEMICONDUCTOR, METHOD FOR USE AS LOW-TOXICITY ALKALINE AQUEOUS SOLUTION FOR SEMICONDUCTOR, AND METHOD FOR PRODUCING ALKALINE AQUEOUS SOLUTION FOR SEMICONDUCTOR” (priority 2023, dated 2025).
# Tested on: Daphnia sp.
# Settings: OECD TG202 Daphnia sp. acute immobilization test; converted to hydroxide of the quaternary ammonium ion as 100 mass%
smiles,measurement,value
"C[N+](C)(C)C.[OH-] [TMAH, Tetramethylammonium hydroxide]",EC50 value,3 µg/mL
